From patent publication US6436649B1, “Method for detecting and/or quantifying a hapten in a homogeneous phase and device for implementation thereof” (priority 1996, dated 2002)
Like-named read-outs stand apart in the source and are kept apart here.

How the values were obtained:
[1] = biological target: E. Coli β-lactamase (Escherichia coli, UniProt P00811); conditions: enzyme E. Coli; cited from earlier work
[2] = tested on: P99/Q908R/Citro.F. β-lactamases; conditions: enzymes P99/Q908R/Citro.F.; cited from earlier work
[3] = biological target: T1, type C β-lactamases (Enterobacter cloacae, UniProt P05364); conditions: Ki of the parent inhibitor; cited from earlier work
T1 construct: Ki

[4] = biological target: P99/Q908R β-lactamases (Enterobacter cloacae, UniProt P05364); conditions: cited from earlier work
[5] = biological target: Citro.F. β-lactamase (Citrobacter freundii, UniProt P05193); conditions: enzyme Citro.F.; cited from earlier work
[6] = tested on: T2, type C β-lactamases; conditions: selected inhibitors, over the β-lactamases; cited from earlier work
T2 construct: rows headed: Km; kcat

[7] = biological target: T3, β-lactamase from P99 (Enterobacter cloacae, UniProt P05364); test: Inhibitory activity in the presence of anti-nandrolone antibodies; type: biochemical; conditions: P99, [S] 60, [E] 0.25, [I] 0.2 μM
T3 construct: host or cells: Enterobacter cloacae P99 (strain of origin as printed)
Excerpt: (§1) The objective of these measurements, by way of example, is the evaluation of the restoration of the predominant part of the enzymatic activity in the presence of a precise quantity of inhibitor.

[8] = biological target: T4, β-lactamase from E. Coli (Escherichia coli, UniProt P00811); test: as above; type: biochemical; conditions: for V1: without antibodies
Excerpt: as §1

[9] = biological target: T5, β-lactamase from Enterobacter cloacae P99 (Enterobacter cloacae, UniProt P05364); test: Inhibitory activity (Ki) on nitrocefin hydrolysis by β-lactamase; type: biochemical
T5 construct: host or cells: Enterobacter cloacae P99 (strain of origin as printed)
Excerpt: (§2) The choice of the inhibitor depends on the kinetic parameters and on the possibilities of coupling with the hapten to be assayed (presence of functional groups which are not essential for the inhibitory activity). At the enzymatic level, the ideal inhibitor should have a kcat which is as low as possible (very slow rate of degradation) while having a Km which is as low as possible (high affinity for the enzyme) . In the case of the inhibition reactions envisaged, the Km value is close to the constant Ki. The Km can therefore be estimated from an evaluation of the Ki. This is obtained from kinetic measurements carried out in the presence of a reporter substrate with known characteristics, and this in the presence of a variable quantity of inhibitor. The ideal inhibitor should also have a rate constant k+1 (corresponding to the step of binding of the inhibitor to the enzyme) which is as high as possible. Based on this principle, it has been possible to select five inhibitors. They are:
(§3) The measurements were carried out on β-lactamases from different bacterial strains: Enterobacter cloacae P99, Escherichia coli and Citrobacter freundii, symbolized by: P99, E. Coli and C. Freundii.
(§4) The measurements are divided into four parts. […] The second is an evaluation of the inhibitory activity of the inhibitors (Table 9). The third groups together the measurements of enzymatic activity in order to determine the quantity of antibody to be used in the assay. The fourth part comprises the assay of the haptens.
(§5) By way of example, the results of a selective study carried out on this compound are provided. The results presented in Table 9 give the values obtained according to a similar method. […] These measurements determine the concentrations of inhibitor (I) to be used during the assay.

[10] = biological target: T4, β-lactamase from E. Coli; test: as above; type: biochemical
Excerpt: as §2, §3, §4, §5

[11] = biological target: β-lactamase from C. Freundii (Citrobacter freundii, UniProt P05193); test: as above; type: biochemical
Excerpt: as §2, §3, §4, §5

[12] = tested on: P99/Q908E/E. Coli β-lactamases; conditions: enzymes P99/Q908E/E. Coli; cited from earlier work
[13] = P99 [E] 0.0625 nM, [S] nitrocefin 50 μM, [I] 0.1 μM
[14] = P99 [E] 0.0625 nM, [S] nitrocefin 50 μM, [I] 0.3 μM
[15] = P99 [E] 0.0625 nM, [S] nitrocefin 50 μM, [I] 0.4 μM
[16] = P99 [E] 0.0625 nM, [S] nitrocefin 50 μM, [I] 0.5 μM
[17] = P99 [E] […], [S] nitrocefin 60 μM, [I] 0.2 μM
[18] = P99 [E] […], [S] nitrocefin 60 μM, [I] 0.24 μM
[19] = E. Coli [E] 1 nM, [S] nitrocefin 150 μM, [I] 0.2 μM
[20] = E. Coli [E] 1 nM, [S] nitrocefin 150 μM, [I] 0.4 μM
[21] = C. Freundii [E] 0.375 nM, [S] nitrocefin 60 μM, [I] 0.1 μM
[22] = C. Freundii [E] 0.375 nM, [S] nitrocefin 60 μM, [I] 0.2 μM

T4 sequence (P00811 20-377): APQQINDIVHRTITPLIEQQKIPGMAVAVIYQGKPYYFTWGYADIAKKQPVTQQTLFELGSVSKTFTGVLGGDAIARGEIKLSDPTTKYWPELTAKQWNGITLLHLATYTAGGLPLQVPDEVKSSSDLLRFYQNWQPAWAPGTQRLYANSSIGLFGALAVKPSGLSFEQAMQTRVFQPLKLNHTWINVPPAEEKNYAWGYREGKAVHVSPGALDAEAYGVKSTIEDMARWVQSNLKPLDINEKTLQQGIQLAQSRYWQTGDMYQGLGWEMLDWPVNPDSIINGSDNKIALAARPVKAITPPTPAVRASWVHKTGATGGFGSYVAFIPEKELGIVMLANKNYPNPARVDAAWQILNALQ
Sequence of E. Coli β-lactamase (P00811 20-377): as above
Sequence of β-lactamase from C. Freundii (P05193 21-381): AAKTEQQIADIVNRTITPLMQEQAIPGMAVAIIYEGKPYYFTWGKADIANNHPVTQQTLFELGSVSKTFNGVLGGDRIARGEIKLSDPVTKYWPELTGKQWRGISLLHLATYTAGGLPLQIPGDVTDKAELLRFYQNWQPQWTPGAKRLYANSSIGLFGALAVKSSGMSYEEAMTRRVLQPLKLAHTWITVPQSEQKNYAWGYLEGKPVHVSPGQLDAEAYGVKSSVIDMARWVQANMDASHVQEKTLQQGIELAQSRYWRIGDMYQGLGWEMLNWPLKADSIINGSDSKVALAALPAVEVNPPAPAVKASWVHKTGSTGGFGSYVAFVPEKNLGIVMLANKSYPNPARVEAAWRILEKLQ
Sequence of Citro.F. β-lactamase (P05193 21-381): as above

For `CC1(C)S[C@@H]2[C@H](NC(=O)Cc3ccccc3)C(=O)N2[C@H]1C(=O)O` [Benzylpenicillin], the Km [1] is given as 4.4 µM, the kcat [1] is given as 45 S^−1 and the Km [2] is given as 0.5 µM. For the same compound, the kcat [2] was 20 S^−1.

In the case of `CC1(C)S[C@@H]2[C@H](NC(=O)C(C(=O)O)c3ccccc3)C(=O)N2[C@H]1C(=O)O` (stereo partly shown) [Carbenicillin], the Km [1] is given as 0.02 µM, the kcat [1] is given as 0.003 S^−1 and the Ki [3] is given as 0.01 µM. For the same compound, the Km ([4]; enzyme P99/Q908R) was 0.01 µM, the kcat ([4]; enzyme P99/Q908R) was 0.002 S^−1 and the Km [5] was 0.0005 µM. For the same compound, the kcat [5] was 0.004 S^−1.

In the case of `Cc1nnc(SCC2=C(C(=O)O)N3C(=O)[C@@H](NC(=O)Cn4cnnn4)[C@H]3SC2)s1` [Cefazolin], the Km [1] is listed as 400 µM and the kcat [1] is listed as 3000 150 S^−1.

For `CO/N=C(\C(=O)N[C@@H]1C(=O)N2C(C(=O)O)=C(COC(C)=O)CS[C@H]12)c1csc(N)n1` [Cefotaxime], the Km [1] is given as 1.7 µM, the kcat [1] is given as 0.17 S^−1 and the Km ([4]; enzyme P99/Q908R) is given as 0.01 µM. For the same compound, the kcat ([4]; enzyme P99/Q908R) was 0.01 S^−1.

In the case of `CO/N=C(\C(=O)N[C@@H]1C(=O)N2C(C(=O)O)=C(COC(N)=O)CS[C@H]12)c1ccco1` [Cefuroxime], the Km [1] is given as 0.15 µM, the kcat [1] is given as 0.15 S^−1 and the Km [6] is given as 0.02 µM. The Km ([4]; enzyme P99/Q908R) was 0.02 µM and the kcat ([4]; enzyme P99/Q908R) was 0.04 S^−1.

For `CC(=O)OCC1=C(C(=O)O)N2C(=O)[C@@H](NC(=O)CC#N)[C@H]2SC1` [Cephaestrile], the Km ([4]; enzyme P99/Q908R) is given as 140 µM and the kcat ([4]; enzyme P99/Q908R) is given as 143 S^−1.

For `CC(=O)OCC1=C(C(=O)O)N2C(=O)[C@@H](NC(=O)[C@H](N)c3ccccc3)[C@H]2SC1` [Cephaglycine], the kcat ([4]; enzyme P99/Q908R) is listed as 1 S^−1 and the Km ([4]; enzyme P99/Q908R, read-out: Km) is listed as 2 µM.

For `CC1=C(C(=O)O)N2C(=O)[C@@H](NC(=O)[C@H](N)c3ccccc3)[C@H]2SC1` [Cephalexin], the Km [1] is given as 4 µM, the kcat [1] is given as 38 S^−1 and the kcat ([4]; enzyme P99/Q908R) is given as 100 S^−1. The Km ([4]; enzyme P99/Q908R, read-out: Km) was 10 µM.

In the case of `O=C(Cc1cccs1)N[C@@H]1C(=O)N2C(C(=O)[O-])=C(C[n+]3ccccc3)CS[C@H]12` [Cephaloridine], the Km [1] is listed as 170 µM, the kcat [1] is listed as 130 S^−1 and the Km ([4]; enzyme P99/Q908R) is listed as 70 µM. For the same compound, the kcat ([4]; enzyme P99/Q908R) was 650 S^−1, the Km [5] was 35 µM and the kcat [5] was 700 S^−1.

For `CC(=O)OCC1=C(C(=O)O)N2C(=O)[C@@H](NC(=O)CCC[C@@H](N)C(=O)O)[C@H]2SC1` [Cephalosporin C], the kcat ([4]; enzyme P99/Q908R) is listed as 1100 S^−1 and the Km ([4]; enzyme P99/Q908R, read-out: Km) is listed as 400 µM.

In the case of `CC(=O)OCC1=C(C(=O)O)N2C(=O)[C@@H](NC(=O)Cc3cccs3)[C@H]2SC1` [Cephalothin], the Km [1] is given as 42 µM, the kcat [1] is given as 300 S^−1 and the Km ([4]; enzyme P99/Q908R) is given as 15 µM. The kcat ([4]; enzyme P99/Q908R) was 200 S^−1.

In the case of `CC1(C)S[C@@H]2[C@H](NC(=O)C(C(=O)O[C@H]3CC[C@H]4[C@@H]5CCC6=CC(=O)CC[C@@H]6[C@H]5CC[C@]34C)c3ccccc3)C(=O)N2[C@H]1C(=O)O` (stereo partly shown) [Conjugate 1, nandrolone carbenicillinate], the Vab ([7]; anti-nandrolone serum dil. 500 x) is reported as 200 nM/s, the Vab ([7]; anti-nandrolone serum dil. 625 x) is reported as 200 nM/s and the Vab ([7]; anti-nandrolone serum dil. 770 x) is reported as 189 nM/s. It also gave a Vab ([7]; anti-nandrolone serum dil. 1000 x) of 170 nM/s, a V1 ([7]; without antibodies) of 131 nM/S and a Vab ([8]; [S] 150, [E] 1, [I] 0.24 μM, anti-nandrolone serum dil. 625 x) of 307 nM/s. The Vab ([8]; [S] 150, [E] 1, [I] 0.24 μM, anti-nandrolone serum dil. 714 x) was 299 nM/s, the V1 ([8]; [S] 150, [E] 1, [I] 0.24 μM) was 210 nM/S and the Vab ([8]; [S] 150, [E] 1, [I] 1 μM, anti-nandrolone serum dil. 100 x) was 211 nM/s. The Vab ([8]; [S] 150, [E] 1, [I] 1 μM, anti-nandrolone serum dil. 125 x) was 210 nM/s, the Vab ([8]; [S] 150, [E] 1, [I] 1 μM, anti-nandrolone serum dil. 140 x) was 200 nM/s and the Vab ([8]; [S] 150, [E] 1, [I] 1 μM, anti-nandrolone serum dil. 200 x) was 174 nM/s. For the same compound, the Vab ([8]; [S] 150, [E] 1, [I] 1 μM, anti-nandrolone serum dil. 500 x) was 123 nM/s, the V1 ([8]; [S] 150, [E] 1, [I] 1 μM) was 90 nM/S and the Ki ([9]; P99, summary value of the six determinations) was 0.074 µM. It also gave a Ki [9, 13] of 0.076 µM, a Ki [9, 14] of 0.062 µM and a Ki [9, 15] of 0.065 µM. The Ki [9, 16] was 0.074 µM, the Ki [9, 17] was 0.088 µM and the Ki [9, 18] was 0.078 µM. The Ki ([9]; enzyme from P99) was 0.07 µM, the “V0/V1 1” value [9, 13] was 0.44 and the V1 [9, 13] was 36 nM/s. The “V0/V1 1” value [9, 14] was 1.6, the V1 [9, 14] was 20 nM/s and the “V0/V1 1” value [9, 15] was 2.06. The V1 [9, 15] was 17 nM/s, the “V0/V1 1” value [9, 16] was 2.25 and the V1 [9, 16] was 16 nM/s. The “V0/V1 1” value [9, 17] was 0.66, the V1 [9, 17] was 131 nM/s and the “V0/V1 1” value [9, 18] was 0.88. For the same compound, the V1 [9, 18] was 116 nM/s, the “V0/V1 1” value [10, 19] was 0.19 and the V1 [10, 19] was 260 nM/s. The “V0/V1 1” value [10, 20] was 0.41, the V1 [10, 20] was 220 nM/s and the Ki [10, 19] was 0.8 µM. The Ki [10, 20] was 0.76 µM, the Ki ([10]; E. Coli, summary value of the two determinations) was 0.78 µM and the “V0/V1 1” value [11, 21] was 0.15. The V1 [11, 21] was 209 nM/s, the “V0/V1 1” value [11, 22] was 0.47 and the V1 [11, 22] was 163 nM/s. The Ki [11, 21] was 0.08 µM, the Ki [11, 22] was 0.062 µM and the Ki ([11]; C. Freundii, summary value of the two determinations) was 0.071 µM.

In the case of `COc1cccc(OC)c1C(=O)N[C@@H]1C(=O)N2[C@@H]1SC(C)(C)[C@@H]2C(=O)O` [Methicillin], the Km [1] is given as 0.15 µM, the kcat [1] is given as 0.08 S^−1 and the Km ([4]; enzyme P99/Q908R) is given as 0.03 µM. For the same compound, the kcat ([4]; enzyme P99/Q908R) was 0.007 S^−1, the Km [5] was 0.002 µM and the kcat [5] was 0.01 S^−1.

In the case of `O=C(Cc1cccs1)N[C@@H]1C(=O)N2C(C(=O)O)=C(/C=C/c3ccc([N+](=O)[O-])cc3[N+](=O)[O-])CS[C@H]12` [Nitrocephin], the Km [1] is given as 500 µM, the kcat [1] is given as 500 S^−1 and the kcat ([4]; P99 enzyme, nitrocefin as reporter substrate) is given as 780 s⁻¹. The kcat ([4]; enzyme P99/Q908R) was 780 S^−1, the Km ([4]; enzyme P99/Q908R, read-out: Km) was 25 µM and the Km [5] was 12 µM. For the same compound, the kcat [5] was 300 S^−1.

In the case of `Cc1onc(-c2ccccc2)c1C(=O)N[C@@H]1C(=O)N2[C@@H]1SC(C)(C)[C@@H]2C(=O)O` [Oxacillin], the Ki [3] is listed as 0.0005 µM, the kcat [6] is listed as 0.005 s⁻¹ and the Km [12] is listed as 0.0005 µM. For the same compound, the kcat [12] was 0.005 S^−1.

In the case of `CC1(C)S[C@@H]2[C@H](NC(=O)[C@H](C(=O)O)c3ccsc3)C(=O)N2[C@H]1C(=O)O` [Ticarcillin], the Km [12] is listed as 0.25 µM and the kcat [12] is listed as 0.045 S^−1.
